Data on two compounds can be found in patent US20230147588A1, “USE OF1,9-DECANEDIOL IN INHIBITING AMMONIA VOLATILIZATION FROM SOIL” (INSTITUTION OF SOIL SCIENCE, CHINESE ACADEMY OF SCIENCES, priority 2021, published 2023).

In experiment [1] the test system is ammonia volatilization from soil. Kind of experiment: Soil column culture: effects of 1,9-decanediol on ammonia volatilization from soil (Test Example 1). The note with it: paddy soil column, 21 days. The procedure: 1.1 test soil: the test soil type is paddy soil, and the texture is sandy loam. It is collected from 0~20 centimeters (cm) topsoil of the experimental field in Yingtan City, Jiangxi Province (28°15′N, 116°55′E), sieved with a 2 millimeters (mm) sieve, and mixed evenly. See Table 1 for basic physical and chemical properties.
1.3 experimental treatment: urea treatment (U) and 1,9-decanediol + urea treatment are set in experiments. Among them, 1, 9-decanediol is added in soil at four levels of 100 mg/kg, 200 mg/kg, 500 mg/kg, and 1000 mg/kg, numbered as: 1, 9-D-100, 1, 9-D-200, 1, 9-D-500, and 1, 9-D-1000 respectively. Each treatment is repeated three times. The nitrogen application rate is 200 mg nitrogen per kilogram soil.
A soil column culture method is used for the test (FIG. 1). The soil column is 18 centimeters (cm) in height and 5 cm in inner diameter, which is divided into a leak-proof layer, a soil-fertilizer mixed layer, a flooded layer, and an idle layer (also referred to as spare layer). […] The mixed solution is evenly applied to the soil-fertilizer mixture layer of the soil column, the water is added to maintain a flooded state, and the ammonia volatilization from soil is monitored for 21 consecutive days.

Experiment [2] shares this test system. Briefly: Soil column culture: effects of different inhibitors on ammonia volatilization from soil (Test Example 2). The note with it: 21 days; for inhibition of ammonia volatilization from soil compared with the urea treatment (U): 200 mg N per kg soil; for order of inhibition effects of ammonia volatilization, from high to low: suffix -100 / -500 = addition in soil in mg/kg, with urea. The source says:
A soil column culture method is used for the test (FIG. 1). The soil column is 18 centimeters (cm) in height and 5 cm in inner diameter, which is divided into a leak-proof layer, a soil-fertilizer mixed layer, a flooded layer, and an idle layer (also referred to as spare layer). A leak-proof pad and 1 cm thick quartz sand are placed in the leak-proof layer at a bottom of the soil column firstly to prevent soil leakage and simulate a real situation in the field, and then the experimental soil is added to the soil-fertilizer mixed layer, and after compaction, a bottom leaching switch is turned on and water is added to restore the soil activity. After one night of soil recovery activity, the bottom leaching switch is turned off, and the urea required for each treatment is mixed with 1,9-decanediol to prepare a mixed solution. The mixed solution is evenly applied to the soil-fertilizer mixture layer of the soil column, the water is added to maintain a flooded state, and the ammonia volatilization from soil is monitored for 21 consecutive days.
2.1 Test Soil: The Same as Test Example 1
2.2 test reagent: 1, 9-decanediol, the same as test example 1, dicyandiamide (DCD, C2H4N4), linolenic acid (LN, […]) and methyl 3-(4-hydroxyphenyl)propionate (MHPP, C10H12O3) are purchased from Sigma.
2.3 experimental treatments: urea treatment (U), DCD + urea treatment, LN + urea treatment, MHPP + urea treatment, and 1,9-decanediol + urea treatment are set in experiments, in which an addition of DCD in soil is 20 mg/kg, and additions of LN, MHPP and 1,9-decanediol in soil each includes 100 mg/kg and 500 mg/kg, numbered as: DCD, LN-100, LN-500, MHPP-100, MHPP-500, 1,9-D-100, and 1,9-D-500. Each treatment is repeated three times. The nitrogen application rate is 200 mg nitrogen per kilogram soil.
2.4 Experimental Steps: The Same as the Test Example 1

The next experiment relates to nitrification process. The note with it: at low concentration; cited from earlier work.
Where [3] appears, read: paddy soil column, additions 100 and 500 mg/kg with urea.

As to `CC(O)CCCCCCCCO` (centres unmarked) [1,9-decanediol], the “dose dependence of the inhibition effect of ammonia volatilization” value in experiment [1] (100 to 1000 mg/kg in soil with urea) is “more obvious with the increase of the dosage”. Also, in experiment [1] (flooded, 100, 200, 500, 1000 mg/kg in soil with urea, 200 mg N per kg soil), the “total amount of ammonia volatilization from soil compared with the treatment (U) without 1,9-decanediol” value was “significantly reduce the total amount of ammonia volatilization from soil”. In addition, in experiment [2] (setting [3]), the “ammonia volatilization from soil compared with LN and MHPP treatments” value was “significantly lower than that from soil treated with LN and MHPP”; the “inhibition of ammonia volatilization from soil compared with the urea treatment (U)” value is “can inhibit ammonia volatilization from soil”. Also, in experiment [2], the “order of inhibition effects of ammonia volatilization, from high to low” value is 1,9-D-500 > LN-500 > 1,9-D-100 >MHPP-500 > LN-100 > MHPP-100. Further, in the experiment with nitrification process, the “inhibition of the nitrification process” value is listed as “can inhibit the nitrification process at low concentration”.
On to `COC(=O)CCc1ccc(O)cc1` [MHPP, methyl 3-(4-hydroxyphenyl)propionate, reference compound], for which the “inhibition of ammonia volatilization from soil compared with the urea treatment (U)” value in experiment [2] (setting [3]) is recorded as “can inhibit ammonia volatilization from soil”. Moreover, in experiment [2], the “order of inhibition effects of ammonia volatilization, from high to low” value is recorded as 1,9-D-500 > LN-500 > 1,9-D-100 >MHPP-500 > LN-100 > MHPP-100.
